Several values for one entry are separate records, joined by “and”; a condition that tells them apart may be missing. Equal entries are not always repeated. Toxic doses and inconclusive results are not listed.
Tested on: P388 leukemia ip, CD2F1 mice, survival T/C
Experiment: NCI In Vivo Anticancer Drug Screen. Data for tumor model P388 Leukemia (intraperitoneal) in CD2F1 (CDF1) mice
Details: endpoint: median survival time, higher = longer survival
Procedure, shortened: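 Mice carrying the transplanted tumor received test compound or vehicle. Survival was recorded in each group, and the value is the treated-group measurement divided by that of the vehicle-treated control group.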

[1] = dose: 25.0 mg/kg/injection, schedule: Q01DX005 (ip), vehicle: Klucel (hydroxypropylcellulose) (HPC)
[2] = dose: 50.0 mg/kg/injection, schedule: Q01DX005 (ip), vehicle: Klucel (hydroxypropylcellulose) (HPC)
[3] = dose: 100.0 mg/kg/injection, schedule: Q01DX005 (ip), vehicle: Klucel (hydroxypropylcellulose) (HPC)
[4] = dose: 200.0 mg/kg/injection, schedule: Q01DX005 (ip), vehicle: Klucel (hydroxypropylcellulose) (HPC)
[5] = dose: 12.5 mg/kg/injection, schedule: Q01DX005 (ip), vehicle: Klucel (hydroxypropylcellulose) (HPC)
[6] = dose: 100.0 mg/kg/injection, schedule: Q04DX003 (ip), vehicle: saline with Tween-80
[7] = dose: 200.0 mg/kg/injection, schedule: Q04DX003 (ip), vehicle: saline with Tween-80
[8] = dose: 400.0 mg/kg/injection, schedule: Q04DX003 (ip), vehicle: saline with Tween-80
[9] = dose: 50.0 mg/kg/injection, schedule: Q01DX009 (ip), vehicle: saline with Tween-80
[10] = dose: 100.0 mg/kg/injection, schedule: Q01DX009 (ip), vehicle: saline with Tween-80
[11] = dose: 200.0 mg/kg/injection, schedule: Q01DX009 (ip), vehicle: saline with Tween-80
[12] = dose: 60.0 mg/kg/injection, schedule: Q01DX005 (ip), vehicle: saline with Tween-80
[13] = dose: 120.0 mg/kg/injection, schedule: Q01DX005 (ip), vehicle: saline with Tween-80
[14] = dose: 240.0 mg/kg/injection, schedule: Q01DX005 (ip), vehicle: saline with Tween-80

Compound: CC(=O)Oc1ccc2c(c1)c1c(OC(C)=O)c(N(C)C(C)=O)cc(OC(C)=O)c1n2C
- T/C (dose: 50.0 mg/kg/injection, schedule: Q01DX009 (ip), vehicle: saline): 100 % of control
- T/C (dose: 100.0 mg/kg/injection, schedule: Q01DX009 (ip), vehicle: saline): 86 % of control
- T/C (dose: 200.0 mg/kg/injection, schedule: Q01DX009 (ip), vehicle: saline): 100 % of control

Compound: CCOC(=O)C1NC(=O)C(C)NC1=O (stereo not given)
- T/C (dose: 60.0 mg/kg/injection, schedule: Q01DX005 (ip), vehicle: Klucel (hydroxypropylcellulose) (HPC)): 103 % of control
- T/C (dose: 120.0 mg/kg/injection, schedule: Q01DX005 (ip), vehicle: Klucel (hydroxypropylcellulose) (HPC)): 107 % of control
- T/C (dose: 240.0 mg/kg/injection, schedule: Q01DX005 (ip), vehicle: Klucel (hydroxypropylcellulose) (HPC)): 100 % of control

Compound: O=C(NNC(=O)C12CC3CC(CC(C3)C1)C2)C12CC3CC(CC(C3)C1)C2
- T/C [1]: 105 % of control
- T/C [2]: 102 % of control
- T/C [3]: 105 % of control
- T/C [4]: 105 % of control

Compound: COc1cc(CC2C(=O)OCC2C(=O)c2ccc3c(c2)OCO3)cc(OC)c1OC (stereo not given)
- T/C [5]: 102 % of control
- T/C [1]: 102 % of control
- T/C [2]: 91 % of control and 93 % of control
- T/C [3]: 98 % of control
- T/C [4]: 98 % of control

Compound: Cn1nnnc1CCN(CCN(CCc1nnnn1C)/N=C\c1ccccc1)/N=C\c1ccccc1
- T/C (dose: 50.0 mg/kg/injection, schedule: Q04DX003 (ip), vehicle: Klucel (hydroxypropylcellulose) (HPC)): 95 % of control
- T/C (dose: 100.0 mg/kg/injection, schedule: Q04DX003 (ip), vehicle: Klucel (hydroxypropylcellulose) (HPC)): 95 % of control
- T/C (dose: 200.0 mg/kg/injection, schedule: Q04DX003 (ip), vehicle: Klucel (hydroxypropylcellulose) (HPC)): 96 % of control

Compound: CC(=O)Nc1ccc(Br)c(NC(C)=O)n1
- T/C [6]: 104 % of control
- T/C [7]: 104 % of control
- T/C [8]: 109 % of control

Compound: Nc1ccc(Cl)cc1N
- T/C (dose: 12.5 mg/kg/injection, schedule: Q01DX009 (ip), vehicle: other): 105 % of control
- T/C (dose: 12.5 mg/kg/injection, schedule: Q01DX009 (ip), vehicle: saline with Tween-80): 102 % of control
- T/C (dose: 25.0 mg/kg/injection, schedule: Q01DX009 (ip), vehicle: other): 100 % of control
- T/C (dose: 25.0 mg/kg/injection, schedule: Q01DX009 (ip), vehicle: saline with Tween-80): 102 % of control and 104 % of control
- T/C (dose: 50.0 mg/kg/injection, schedule: Q01DX009 (ip), vehicle: other): 113 % of control
- T/C [9]: 101 % of control and 107 % of control
- T/C (dose: 100.0 mg/kg/injection, schedule: Q01DX009 (ip), vehicle: other): 105 % of control
- T/C [10]: 100 % of control and 105 % of control
- T/C (dose: 200.0 mg/kg/injection, schedule: Q01DX009 (ip), vehicle: other): 105 % of control
- T/C [11]: 114 % of control and 121 % of control

Compound: CC(C)(C)OC(=O)NCC(=O)ON1C(=O)CCC1=O
- T/C [9]: 118 % of control
- T/C [10]: 102 % of control

Compound: COc1ccc(C(=O)CCN(C)C)c(OC)c1
- T/C (dose: 15.0 mg/kg/injection, schedule: Q01DX005 (ip), vehicle: saline): 102 % of control
- T/C (dose: 30.0 mg/kg/injection, schedule: Q01DX005 (ip), vehicle: saline): 94 % of control
- T/C (dose: 60.0 mg/kg/injection, schedule: Q01DX005 (ip), vehicle: saline): 106 % of control and 109 % of control

Compound: CSc1nc(N)n2nc(C3CC3)cc2n1
- T/C [12]: 102 % of control
- T/C [13]: 100 % of control
- T/C [14]: 100 % of control

Compound: C1CCC2C(C1)CCC1COCN12 (stereo not given)
- T/C [5]: 98 % of control
- T/C (dose: 12.5 mg/kg/injection, schedule: Q01DX005 (ip), vehicle: saline): 108 % of control
- T/C [1]: 100 % of control
- T/C (dose: 25.0 mg/kg/injection, schedule: Q01DX005 (ip), vehicle: saline): 100 % of control
- T/C [2]: 105 % of control
- T/C (dose: 50.0 mg/kg/injection, schedule: Q01DX005 (ip), vehicle: saline): 103 % of control and 119 % of control
- T/C [3]: 114 % of control
- T/C (dose: 100.0 mg/kg/injection, schedule: Q01DX005 (ip), vehicle: saline): 118 % of control and 124 % of control
- T/C (dose: 200.0 mg/kg/injection, schedule: Q01DX005 (ip), vehicle: saline): 101 % of control

Compound: COc1ccc2c(ccc3c(N)ncnc32)c1
- T/C (dose: 100.0 mg/kg/injection, schedule: Q04DX002 (ip), vehicle: saline with Tween-80): 92 % of control
- T/C (dose: 200.0 mg/kg/injection, schedule: Q04DX002 (ip), vehicle: saline with Tween-80): 103 % of control

Compound: O=C(Cc1ccc([N+](=O)[O-])cc1)ON1C(=O)CCC1=O
- T/C [12]: 117 % of control
- T/C [13]: 114 % of control

Compound: O=C1Nc2ccccc2S/C1=C/c1ccccc1
- T/C (dose: 50.0 mg/kg/injection, schedule: Q01DX009 (ip), vehicle: gum acacia): 109 % of control
- T/C (dose: 100.0 mg/kg/injection, schedule: Q01DX009 (ip), vehicle: gum acacia): 113 % of control
- T/C (dose: 200.0 mg/kg/injection, schedule: Q01DX009 (ip), vehicle: gum acacia): 97 % of control

Compound: CCN(CCNc1ccc(CO)c2sc3ccccc3c(=O)c12)CC(C)(C)O
- T/C (dose: 265.0 mg/kg/injection, schedule: Q04DX003 (ip), vehicle: saline with Tween-80): 123 % of control
- T/C [8]: 159 % of control
- T/C (dose: 600.0 mg/kg/injection, schedule: Q04DX003 (ip), vehicle: saline with Tween-80): 185 % of control

Compound: CCOC(=O)C(C)Oc1ccc(Cl)cc1 (stereo not given)
- T/C (dose: 25.0 mg/kg/injection, schedule: Q01DX009 (ip), vehicle: water): 99 % of control
- T/C (dose: 50.0 mg/kg/injection, schedule: Q01DX009 (ip), vehicle: water): 102 % of control
- T/C (dose: 100.0 mg/kg/injection, schedule: Q01DX009 (ip), vehicle: water): 102 % of control
- T/C (dose: 200.0 mg/kg/injection, schedule: Q01DX009 (ip), vehicle: water): 98 % of control
- T/C (dose: 400.0 mg/kg/injection, schedule: Q01DX009 (ip), vehicle: water): 107 % of control

Compound: O=C(CF)c1ccc(Cl)cc1
- T/C [9]: 99 % of control
- T/C [10]: 106 % of control
- T/C [11]: 111 % of control

Compound: CCOC(=O)/C=C/c1c[nH]c(=O)[nH]c1=O
- T/C (dose: 12.5 mg/kg/injection, schedule: Q01DX009 (ip), vehicle: distilled water + Tween-80): 100 % of control
- T/C (dose: 25.0 mg/kg/injection, schedule: Q01DX009 (ip), vehicle: distilled water + Tween-80): 96 % of control
- T/C (dose: 50.0 mg/kg/injection, schedule: Q01DX009 (ip), vehicle: distilled water + Tween-80): 92 % of control
- T/C (dose: 100.0 mg/kg/injection, schedule: Q01DX009 (ip), vehicle: distilled water + Tween-80): 88 % of control

Compound: COC1=CC(=O)C(c2cc(OC(C)=O)c(OC)cc2OC(C)=O)=CC1=O
- T/C (dose: 6.0 mg/kg/injection, schedule: Q01DX005 (ip), vehicle: saline + Tween-80 + alcohol): 108 % of control
- T/C (dose: 12.0 mg/kg/injection, schedule: Q01DX005 (ip), vehicle: saline + Tween-80 + alcohol): 100 % of control
- T/C (dose: 25.0 mg/kg/injection, schedule: Q01DX005 (ip), vehicle: saline + Tween-80 + alcohol): 105 % of control

Compound: Nc1cc(=O)[nH][nH]1
- T/C [6]: 100 % of control
- T/C [7]: 100 % of control
- T/C [8]: 109 % of control

Compound: CCCCCCCCCCCCCCCC1C(N)C(=O)N(C)N1C (stereo not given)
- T/C [9]: 86 % of control
- T/C [10]: 95 % of control

Compound: S=C(Nc1ccc(I)cc1)SCc1ccco1
- T/C (dose: 50.0 mg/kg/injection, schedule: Q01DX009 (ip), vehicle: suspension in saline): 90 % of control
- T/C (dose: 100.0 mg/kg/injection, schedule: Q01DX009 (ip), vehicle: suspension in saline): 112 % of control
- T/C (dose: 200.0 mg/kg/injection, schedule: Q01DX009 (ip), vehicle: suspension in saline): 109 % of control

Compound: CC1=CC2C3C(=O)NC(=O)C3C1C1C3C(=O)NC(=O)C3C21 (stereo not given)
- T/C [12]: 98 % of control
- T/C [13]: 104 % of control
- T/C [14]: 95 % of control

Compound: O[C@H]1CCC[C@H]1NCc1ccnc2cc(Cl)ccc12
- T/C (dose: 50.0 mg/kg/injection, schedule: Q01DX005 (ip), vehicle: saline with Tween-80): 100 % of control
- T/C (dose: 100.0 mg/kg/injection, schedule: Q01DX005 (ip), vehicle: saline with Tween-80): 89 % of control
- T/C (dose: 200.0 mg/kg/injection, schedule: Q01DX005 (ip), vehicle: saline with Tween-80): 91 % of control

Compound: CCCCN(CCCC)CCNc1ccc(C)c2sc3c(Cl)cccc3c(=O)c12
- T/C [2]: 99 % of control
- T/C [3]: 108 % of control
- T/C [4]: 105 % of control

From PubChem BioAssay AID330 (DTP/NCI, 2004)
